Here are results for 9 compounds from patent publication US20220127255A1, “HERBICIDAL COMPOUNDS” (SYNGENTA CROP PROTECTION AG, priority 2019, published 2022).

Structures can show the parent of a compound that is named as a salt. Where two headings read alike, the source gives them in different places.

Test in all cases: Post-emergence efficacy, glasshouse spray test
Common to all, as to assay type: in vivo

The subject of experiment [1] is Amaranthus palmeri (AMAPA). The following applies: 312 h, read-out: Control of weed species AMAPA after post-emergence application (100=total damage to plant; 0=no damage to plant). As to the method: (§1) Seeds of a variety of test species were sown in standard soil in pots. After cultivation for 14 days (post-emergence) under controlled conditions in a glasshouse (at 24/16° C., day/night; 14 hours light; 65% humidity), the plants were sprayed with an aqueous spray solution derived from the dissolution of the technical active ingredient formula (I) in a small amount of acetone and a special solvent and emulsifier mixture referred to as IF50 (11.12% Emulsogen EL360 TM+44.44% N-methylpyrrolidone+44.44% Dowanol DPM glycol ether), to create a 50 g/l solution which was then diluted to required concentration using 0.25% or 1% Empicol ESC70 (Sodium lauryl ether sulphate)+1% ammonium sulphate as diluent.
(§2) The test plants were then grown in a glasshouse under controlled conditions (at 24/16° C., day/night; 14 hours light; 65% humidity) and watered twice daily. After 13 days the test was evaluated (100=total damage to plant; 0=no damage to plant).
(§3) Ipomoea hederacea (IPOHE), Euphorbia heterophylla (EPHHL), Chenopodium album (CHEAL), Amaranthus palmeri (AMAPA), Lolium perenne (LOLPE), Digitaria sanguinalis (DIGSA), Eleusine indica (ELEIN), Echinochloa crus-galli (ECHCG), Setaria faberi (SETFA)

The next experiment concerns Lolium perenne (LOLPE). The following applies: 312 h, read-out: Control of weed species LOLPE after post-emergence application (100=total damage to plant; 0=no damage to plant). How it is done:
as §1, §2, §3

The subject of the next experiment is Eleusine indica (ELEIN). The following applies: 312 h, read-out: Control of weed species ELEIN after post-emergence application (100=total damage to plant; 0=no damage to plant). As to the method:
as §1, §2, §3

For experiment [2], the system named is Chenopodium album (CHEAL). The settings on record: 312 h, read-out: Control of weed species CHEAL after post-emergence application (100=total damage to plant; 0=no damage to plant). How it is done: as §1, §2, §3
Experiment [3] has as its system Echinochloa crus-galli (ECHCG). The following applies: 312 h, read-out: Control of weed species ECHCG after post-emergence application (100=total damage to plant; 0=no damage to plant). As to the method:
as §1, §2, §3

Experiment [4] deals with Euphorbia heterophylla (EPHHL). The settings on record: 312 h, read-out: Control of weed species EPHHL after post-emergence application (100=total damage to plant; 0=no damage to plant). As to the method:
as §1, §2, §3

The next experiment relates to Setaria faberi (SETFA). The following applies: 312 h, read-out: Control of weed species SETFA after post-emergence application (100=total damage to plant; 0=no damage to plant). As to the method: as §1, §2, §3
Experiment [5] has as its system Ipomoea hederacea (IPOHE). The following applies: 312 h, read-out: Control of weed species IPOHE after post-emergence application (100=total damage to plant; 0=no damage to plant). As to the method: as §1, §2, §3
Experiment [6] concerns Digitaria sanguinalis (DIGSA). The settings on record: 312 h, read-out: Control of weed species DIGSA after post-emergence application (100=total damage to plant; 0=no damage to plant). How it is done: as §1, §2, §3
Where [7] appears, read: 130 g/Ha, evaluated after 13 days.
Where [8] appears, read: 500 g/Ha, evaluated after 13 days.

As to `O=S(=O)(CC[n+]1ccc(-c2ncccn2)cn1)c1cnn[nH]1` [Compound A8, 4-pyrimidin-2-yl-1-[2-(1H-triazol-5-ylsulfonyl)ethyl]pyridazin-1-ium 2,2,2-trifluoroacetate], the pest or weed control at 130 g/ha in [1] (setting [7]) is 60%; with Lolium perenne (LOLPE) (setting [7]), 0%; with Eleusine indica (ELEIN) (setting [7]), 50%; in experiment [2] (setting [7]), 0%; in experiment [3] (setting [7]), 40%; in experiment [4] (setting [7]), 70%. Moreover, the values for the pest or weed control at 130 g/ha (with Setaria faberi (SETFA) (setting [7]); in [5] (setting [7])) were 50% and 20%, respectively.
As for `O=C(C[n+]1ccc(-c2ncccn2)cn1)Nc1nccs1` [Compound A4], the pest or weed control at 500 g/ha in experiment [1] (setting [8]) came out at 70%; in experiment [6] (setting [8]) it was 10%; in the experiment with Lolium perenne (LOLPE) (setting [8]), 0%; in the experiment with Eleusine indica (ELEIN) (setting [8]), 80%; in experiment [2] (setting [8]), 60%; in [3] (setting [8]) it was 0%. Besides, the pest or weed control at 500 g/ha was determined as 100% in experiment [4] (setting [8]), 20% with Setaria faberi (SETFA) (setting [8]) and 10% in [5] (setting [8]).
With `Cc1cc(O)c(C(=O)C[n+]2ccc(-c3ncccn3)cn2)c(=O)o1` [Compound A2, 4-hydroxy-6-methyl-3-[2-(4-pyrimidin-2-ylpyridazin-1-ium-1-yl)acetyl]pyran-2-one trifluoroacetate], the pest or weed control at 500 g/ha is 90% in experiment [1] (setting [8]); 30% in experiment [6] (setting [8]); 10% with Lolium perenne (LOLPE) (setting [8]); 70% in the experiment on Eleusine indica (ELEIN) (setting [8]); 0% in [2] (setting [8]); 20% in [3] (setting [8]). Moreover, the pest or weed control at 500 g/ha in experiment [4] (setting [8]) worked out at 70%; with Setaria faberi (SETFA) (setting [8]), 20%; in experiment [5] (setting [8]), 10%.
Turning to `Cc1nnc(NC(=O)C[n+]2ccc(-c3ncccn3)cn2)s1` [Compound A3], the pest or weed control at 500 g/ha in experiment [1] (setting [8]) came out at 50%; in [6] (setting [8]) it was 0%; with Lolium perenne (LOLPE) (setting [8]), 0%; with Eleusine indica (ELEIN) (setting [8]), 0%; in [2] (setting [8]), 30%; in experiment [3] (setting [8]), 10%. Also, the pest or weed control at 500 g/ha in the experiment on Setaria faberi (SETFA) (setting [8]) worked out at 0%.
Consider `Oc1cc(C[n+]2ccc(-c3ncccn3)cn2)on1` [Compound A9, 5-[(4-pyrimidin-2-ylpyridazin-1-ium-1-yl)methyl]isoxazol-3-ol 2,2,2-trifluoroacetate], for which the pest or weed control at 500 g/ha in experiment [1] (setting [8]) was determined as 20%; in experiment [6] (setting [8]), 40%; in the experiment on Lolium perenne (LOLPE) (setting [8]), 10%; in the experiment with Eleusine indica (ELEIN) (setting [8]), 20%; in experiment [2] (setting [8]) it was 40%; in experiment [3] (setting [8]), 30%. The pest or weed control at 500 g/ha worked out at 30% in experiment [4] (setting [8]), 20% in the experiment with Setaria faberi (SETFA) (setting [8]) and 20% in experiment [5] (setting [8]).
As for `O=C(C[n+]1ccc(-c2ncccn2)cn1)Nc1nnn[n-]1` [Compound A7], the pest or weed control at 500 g/ha is 90% in experiment [1] (setting [8]); 30% in [6] (setting [8]); 10% in the experiment on Lolium perenne (LOLPE) (setting [8]); 30% with Eleusine indica (ELEIN) (setting [8]); 90% in experiment [2] (setting [8]); 20% in experiment [3] (setting [8]). Also, the pest or weed control at 500 g/ha in experiment [4] (setting [8]) worked out at 30%; in the experiment on Setaria faberi (SETFA) (setting [8]), 50%; in experiment [5] (setting [8]), 30%.
In the case of `O=C(C[n+]1ccc(-c2ncccn2)cn1)Nc1nncs1` [Compound A5], the pest or weed control at 500 g/ha in experiment [1] (setting [8]) is 100%; in experiment [6] (setting [8]) it was 70%; in the experiment on Lolium perenne (LOLPE) (setting [8]) it was 0%; with Eleusine indica (ELEIN) (setting [8]), 70%; in experiment [2] (setting [8]) it was 30%; in [3] (setting [8]) it was 50%. Besides, the pest or weed control at 500 g/ha (in experiment [4] (setting [8]); with Setaria faberi (SETFA) (setting [8]); in experiment [5] (setting [8])) was 20% throughout.
As to `O=C1NC(=O)C(CC[n+]2ccc(-c3ncccn3)cn2)S1` (stereo not drawn) [Compound A1, 5-[2-(4-pyrimidin-2-ylpyridazin-1-ium-1-yl)ethyl]thiazolidine-2,4-dione trifluoroacetate], the pest or weed control at 500 g/ha in experiment [1] worked out at 90%; in experiment [6], 60%; in the experiment with Lolium perenne (LOLPE) it was 40%; with Eleusine indica (ELEIN), 70%; in [2], 30%; in [3], 50%. Besides, the results for the pest or weed control at 500 g/ha (in [4]; in the experiment with Setaria faberi (SETFA); in [5]) were 50%, 60% and 50%, respectively.
Regarding `Cn1nnnc1NC(=O)C[n+]1ccc(-c2ncccn2)cn1` [Compound A6], the pest or weed control at 500 g/ha was found to be 90% in experiment [1] (setting [8]); 30% in [6] (setting [8]); 0% in the experiment with Lolium perenne (LOLPE) (setting [8]); 20% in the experiment with Eleusine indica (ELEIN) (setting [8]); 90% in [2] (setting [8]); 30% in [3] (setting [8]). In addition, the pest or weed control at 500 g/ha stood at 80% in experiment [4] (setting [8]), 30% with Setaria faberi (SETFA) (setting [8]) and 40% in [5] (setting [8]).
